The source of these data is ChEMBL document CHEMBL1208738, “Optimization of privileged structures for selective and potent melanocortin subtype-4 receptor ligands” (Bioorg Med Chem Lett, 2010).

One may read the IC50 as the midpoint of a concentration-inhibition curve. A low value points to greater potency in that assay. Usually EC50 stands for the concentration at which the effect is half-maximal.

The structures appear in SMILES notation.

T1 sequence (P32245 whole entry): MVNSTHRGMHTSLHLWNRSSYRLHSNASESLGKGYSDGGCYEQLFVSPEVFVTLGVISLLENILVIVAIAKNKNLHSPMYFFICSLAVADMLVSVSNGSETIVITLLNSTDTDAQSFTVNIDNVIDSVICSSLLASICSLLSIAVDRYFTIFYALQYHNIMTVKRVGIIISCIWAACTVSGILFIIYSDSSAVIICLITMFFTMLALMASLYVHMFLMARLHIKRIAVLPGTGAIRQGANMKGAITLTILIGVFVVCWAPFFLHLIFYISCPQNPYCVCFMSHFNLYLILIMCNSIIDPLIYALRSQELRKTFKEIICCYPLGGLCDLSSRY

The first experiment addresses T1, Melanocortin receptor 4 (Homo sapiens, UniProt P32245). Nature of the experiment: Agonist activity at human MC4 receptor expressed in CHO cells assessed as increase of alpha-MSH-induced cAMP accumulation at 10 uM relative to alpha-MSH. The experiment is classed as functional, cell-based.
Conditions: not given
(Changes in cAMP serve as a functional read-out for many G protein-coupled receptors.)
For the molecule `CC(C)N(CC(C1CCCCC1)N1CCN(C(=O)[C@@H]2CN(C(C)(C)C)C[C@H]2c2ccc(F)cc2F)CC1)S(C)(=O)=O` (single isomer, unassigned; diastereomer 1) [listing 1 of 2 here], the Activity amounted to 114%.

For `CC(=O)N(CC(CC(C)C)N1CCN(C(=O)[C@@H]2CN(C(C)(C)C)C[C@H]2c2ccc(F)cc2F)CC1)C(C)C` (single isomer, unassigned; diastereomer 1) [listing 1 of 2 here], the Activity amounted to 101%.

In the case of `CC(C)N(CC(C1CCCCC1)N1CCN(C(=O)[C@@H]2CN(C(C)(C)C)C[C@H]2c2ccc(F)cc2F)CC1)C(=O)c1cccnn1` (single isomer, unassigned; diastereomer 1), the Activity turned out to be 102%.

For `CC(C)N(CC(C1CCCCC1)N1CCN(C(=O)[C@@H]2CN(C(C)(C)C)C[C@H]2c2ccc(F)cc2F)CC1)C(=O)c1cccnn1` (single isomer, unassigned; diastereomer 2) [listing 1 of 2 here], the Activity is 99%.

As for `CC(=O)N(CC(N1CCN(C(=O)[C@@H]2CN(C(C)(C)C)C[C@H]2c2ccc(F)cc2F)CC1)C(C)(C)C)C(C)C` (single isomer, unassigned; diastereomer 1) [listing 1 of 2 here], the Activity is 89%.

Regarding `CC(C)N(CC(C1CCCCC1)N1CCN(C(=O)[C@@H]2CN(C(C)(C)C)C[C@H]2c2ccc(F)cc2F)CC1)C(=O)c1cnn(C(C)C)c1` (single isomer, unassigned; diastereomer 2) [listing 1 of 2 here], the Activity was 81%.

On to `CC(C)CN(CC(C)C)CC(C1CCCCC1)N1CCN(C(=O)[C@@H]2CN(C(C)(C)C)C[C@H]2c2ccc(F)cc2F)CC1` (some centres not stated), for which the Activity was 10%.

In the case of `CC(C)CC(CN(C(C)C)S(C)(=O)=O)N1CCN(C(=O)[C@@H]2CN(C(C)(C)C)C[C@H]2c2ccc(F)cc2F)CC1` (single isomer, unassigned; diastereomer 1) [listing 1 of 2 here], the Activity is 117%.

In the case of `CC(C)N(CC(C1CCCCC1)N1CCN(C(=O)[C@@H]2CN(C(C)(C)C)C[C@H]2c2ccc(F)cc2F)CC1)C(=O)c1ncccn1` (single isomer, unassigned; diastereomer 1), the Activity came out at 98%.

With `CC(C)N(CC(N1CCN(C(=O)[C@@H]2CN(C(C)(C)C)C[C@H]2c2ccc(F)cc2F)CC1)C(C)(C)C)S(C)(=O)=O` (stereo in doubt; 27B) [listing 1 of 2 here], the Activity came to 102%.

In the case of `CC(C)N(CC(N1CCN(C(=O)[C@@H]2CN(C(C)(C)C)C[C@H]2c2ccc(F)cc2F)CC1)C(C)(C)C)S(C)(=O)=O` (stereo in doubt; 27A) [listing 1 of 2 here], the Activity turned out to be 88%.

Take `CC(C)NCC(C1CCCCC1)N1CCN(C(=O)[C@@H]2CN(C(C)(C)C)C[C@H]2c2ccc(F)cc2F)CC1` (some centres not stated): the Activity worked out at 95%.

In the case of `CC(=O)N(CC(C1CCCCC1)N1CCN(C(=O)[C@@H]2CN(C(C)(C)C)C[C@H]2c2ccc(F)cc2F)CC1)C(C)C` (single isomer, unassigned; diastereomer 1) [listing 1 of 2 here], the Activity came to 134%.

`CCCN(CCC)CC(C1CCCCC1)N1CCN(C(=O)[C@@H]2CN(C(C)(C)C)C[C@H]2c2ccc(F)cc2F)CC1` (some centres not stated): the Activity turned out to be 97%.

Consider `CC(=O)N(CC(N1CCN(C(=O)[C@@H]2CN(C(C)(C)C)C[C@H]2c2ccc(F)cc2F)CC1)C(C)(C)C)C(C)C` (single isomer, unassigned; diastereomer 2) [listing 1 of 2 here], for which the Activity turned out to be 94%.

On to `CC(C)N(CC(C1CCCCC1)N1CCN(C(=O)[C@@H]2CN(C(C)(C)C)C[C@H]2c2ccc(F)cc2F)CC1)C(=O)c1ncccn1` (stereo in doubt; 22B) [listing 1 of 2 here], for which the Activity worked out at 88%.

A further experiment deals with Melanocortin receptor 3 (Homo sapiens, UniProt P41968). Nature of the experiment: Agonist activity at human MC3 receptor expressed in CHO cells assessed as increase of alpha-MSH-induced cAMP accumulation at 10 uM relative to alpha-MSH. The experiment is classed as functional, cell-based.
Melanocortin receptor 3, sequence (P41968 whole entry): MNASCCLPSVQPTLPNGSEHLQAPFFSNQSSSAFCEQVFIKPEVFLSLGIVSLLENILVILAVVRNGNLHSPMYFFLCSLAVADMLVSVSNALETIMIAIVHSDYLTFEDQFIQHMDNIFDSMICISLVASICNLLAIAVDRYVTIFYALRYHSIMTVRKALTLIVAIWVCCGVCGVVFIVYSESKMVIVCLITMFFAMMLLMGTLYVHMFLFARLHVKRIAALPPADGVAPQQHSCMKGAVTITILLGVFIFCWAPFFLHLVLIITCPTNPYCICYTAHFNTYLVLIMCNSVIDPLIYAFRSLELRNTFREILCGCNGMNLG
Conditions: not given
As for `CC(C)N(CC(C1CCCCC1)N1CCN(C(=O)[C@@H]2CN(C(C)(C)C)C[C@H]2c2ccc(F)cc2F)CC1)C(=O)c1cccnn1` (single isomer, unassigned; diastereomer 1), the Activity stood at 108%.

The target of another experiment is Melanocyte-stimulating hormone receptor (Homo sapiens, UniProt Q01726). The experiment in a line: Agonist activity at human MC1 receptor expressed in CHO cells assessed as increase of alpha-MSH-induced cAMP accumulation at 10 uM relative to alpha-MSH. It counts as functional, cell-based.
Melanocyte-stimulating hormone receptor, sequence (Q01726 whole entry, looked up): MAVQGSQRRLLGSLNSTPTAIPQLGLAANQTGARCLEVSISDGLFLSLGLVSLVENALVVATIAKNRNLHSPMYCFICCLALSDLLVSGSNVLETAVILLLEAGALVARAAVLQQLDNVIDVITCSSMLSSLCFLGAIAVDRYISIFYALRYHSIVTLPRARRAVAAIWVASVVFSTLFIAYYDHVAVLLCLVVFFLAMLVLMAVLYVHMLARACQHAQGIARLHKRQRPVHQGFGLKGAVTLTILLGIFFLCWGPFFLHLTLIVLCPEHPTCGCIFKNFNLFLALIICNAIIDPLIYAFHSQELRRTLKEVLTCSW
Conditions: not given
For `CC(C)N(CC(C1CCCCC1)N1CCN(C(=O)[C@@H]2CN(C(C)(C)C)C[C@H]2c2ccc(F)cc2F)CC1)C(=O)c1cccnn1` (single isomer, unassigned; diastereomer 1), the Activity worked out at 58%.

For the next experiment, the target named is T1, Melanocortin receptor 4. Nature of the experiment: Displacement of [125I]NDP-alpha-MSH from human MC4 receptor expressed in CHO cells. It counts as cell-based.
Conditions: not given
(Displacement assays read how much labelled ligand stays bound in the presence of the test substance.)
The molecule `CC(C)N(CC(C1CCCCC1)N1CCN(C(=O)[C@@H]2CN(C(C)(C)C)C[C@H]2c2ccc(F)cc2F)CC1)C(=O)c1cccnn1` (single isomer, unassigned; diastereomer 2) [listing 2 of 2 here] had an IC50 of 0.064 µM.

Molecule `CC(C)N(CC(N1CCN(C(=O)[C@@H]2CN(C(C)(C)C)C[C@H]2c2ccc(F)cc2F)CC1)C(C)(C)C)S(C)(=O)=O` (stereo in doubt; 27A) [listing 2 of 2 here] gave an IC50 of 0.053 µM.

For `CC(C)CC(CN(C(C)C)S(C)(=O)=O)N1CCN(C(=O)[C@@H]2CN(C(C)(C)C)C[C@H]2c2ccc(F)cc2F)CC1` (single isomer, unassigned; diastereomer 1) [listing 2 of 2 here], the IC50 came out at 0.088 µM.

As to `CC(=O)N(CC(CC(C)C)N1CCN(C(=O)[C@@H]2CN(C(C)(C)C)C[C@H]2c2ccc(F)cc2F)CC1)C(C)C` (single isomer, unassigned; diastereomer 1) [listing 2 of 2 here], the IC50 was determined as 0.049 µM.

Molecule `CC(=O)N(CC(N1CCN(C(=O)[C@@H]2CN(C(C)(C)C)C[C@H]2c2ccc(F)cc2F)CC1)C(C)(C)C)C(C)C` (single isomer, unassigned; diastereomer 2) [listing 2 of 2 here] registered an IC50 of 0.15 µM.

For `CC(C)N(CC(C1CCCCC1)N1CCN(C(=O)[C@@H]2CN(C(C)(C)C)C[C@H]2c2ccc(F)cc2F)CC1)S(C)(=O)=O` (single isomer, unassigned; diastereomer 1) [listing 2 of 2 here], the IC50 was determined as 0.015 µM.

In turn, `CC(C)CN(CC(C)C)CC(C1CCCCC1)N1CCN(C(=O)[C@@H]2CN(C(C)(C)C)C[C@H]2c2ccc(F)cc2F)CC1` (some centres not stated) yielded an IC50 of 1.9 µM.

As to `CC(=O)N(CC(C1CCCCC1)N1CCN(C(=O)[C@@H]2CN(C(C)(C)C)C[C@H]2c2ccc(F)cc2F)CC1)C(C)C` (single isomer, unassigned; diastereomer 1) [listing 2 of 2 here], the IC50 was 0.029 µM.

In turn, `CC(C)N(CC(C1CCCCC1)N1CCN(C(=O)[C@@H]2CN(C(C)(C)C)C[C@H]2c2ccc(F)cc2F)CC1)C(=O)c1ncccn1` (stereo in doubt; 22B) [listing 2 of 2 here] displayed an IC50 of 0.13 µM.

In the case of `CC(C)NCC(C1CCCCC1)N1CCN(C(=O)[C@@H]2CN(C(C)(C)C)C[C@H]2c2ccc(F)cc2F)CC1` (some centres not stated), the IC50 stood at 0.31 µM.

Molecule `CCCN(CCC)CC(C1CCCCC1)N1CCN(C(=O)[C@@H]2CN(C(C)(C)C)C[C@H]2c2ccc(F)cc2F)CC1` (some centres not stated) showed an IC50 of 0.2 µM.

For `CC(C)N(CC(N1CCN(C(=O)[C@@H]2CN(C(C)(C)C)C[C@H]2c2ccc(F)cc2F)CC1)C(C)(C)C)S(C)(=O)=O` (stereo in doubt; 27B) [listing 2 of 2 here], the IC50 is 0.046 µM.

Molecule `CC(C)N(CC(C1CCCCC1)N1CCN(C(=O)[C@@H]2CN(C(C)(C)C)C[C@H]2c2ccc(F)cc2F)CC1)C(=O)c1cnn(C(C)C)c1` (single isomer, unassigned; diastereomer 2) [listing 2 of 2 here] returned a half-inhibitory concentration (IC50) of 0.062 µM.

The same experiment, now with this note: cho.
For `CC(=O)N(CC(N1CCN(C(=O)[C@@H]2CN(C(C)(C)C)C[C@H]2c2ccc(F)cc2F)CC1)C(C)(C)C)C(C)C` (single isomer, unassigned; diastereomer 1) [listing 2 of 2 here], the IC50 was 0.15 µM.

In another experiment the target is Melanocortin receptor 5 (Homo sapiens, UniProt P33032). The experiment in a line: Agonist activity at human MC5 receptor expressed in CHO cells assessed as increase of alpha-MSH-induced cAMP accumulation at 10 uM relative to alpha-MSH.
Melanocortin receptor 5, sequence (P33032 whole entry): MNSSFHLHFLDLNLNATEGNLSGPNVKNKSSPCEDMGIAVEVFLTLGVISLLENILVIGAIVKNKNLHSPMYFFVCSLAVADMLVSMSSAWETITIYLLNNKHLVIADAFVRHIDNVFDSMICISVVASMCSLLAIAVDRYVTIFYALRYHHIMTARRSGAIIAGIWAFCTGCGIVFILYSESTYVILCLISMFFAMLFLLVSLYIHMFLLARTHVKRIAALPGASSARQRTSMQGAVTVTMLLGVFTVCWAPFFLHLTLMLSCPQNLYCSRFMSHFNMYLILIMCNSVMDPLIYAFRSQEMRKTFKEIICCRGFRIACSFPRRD
Conditions: not given
It counts as functional, cell-based.
Take `CC(C)N(CC(C1CCCCC1)N1CCN(C(=O)[C@@H]2CN(C(C)(C)C)C[C@H]2c2ccc(F)cc2F)CC1)C(=O)c1cccnn1` (single isomer, unassigned; diastereomer 1): the Activity came to 68%.

The next experiment addresses T1, Melanocortin receptor 4. Nature of the experiment: Agonist activity at human MC4 receptor expressed in CHO cells assessed as increase of alpha-MSH-induced cAMP accumulation. It counts as functional, cell-based.
Conditions: not given
On to `CC(C)N(CC(C1CCCCC1)N1CCN(C(=O)[C@@H]2CN(C(C)(C)C)C[C@H]2c2ccc(F)cc2F)CC1)C(=O)c1cccnn1` (single isomer, unassigned; diastereomer 2) [listing 2 of 2 here], for which the EC50 is 0.0091 µM.

With `CC(C)N(CC(N1CCN(C(=O)[C@@H]2CN(C(C)(C)C)C[C@H]2c2ccc(F)cc2F)CC1)C(C)(C)C)S(C)(=O)=O` (stereo in doubt; 27A) [listing 2 of 2 here], the EC50 turned out to be 0.019 µM.

Turning to `CC(C)CC(CN(C(C)C)S(C)(=O)=O)N1CCN(C(=O)[C@@H]2CN(C(C)(C)C)C[C@H]2c2ccc(F)cc2F)CC1` (single isomer, unassigned; diastereomer 1) [listing 2 of 2 here], the EC50 was 0.047 µM.

As to `CC(=O)N(CC(CC(C)C)N1CCN(C(=O)[C@@H]2CN(C(C)(C)C)C[C@H]2c2ccc(F)cc2F)CC1)C(C)C` (single isomer, unassigned; diastereomer 1) [listing 2 of 2 here], the EC50 is 0.029 µM.

For `CC(=O)N(CC(N1CCN(C(=O)[C@@H]2CN(C(C)(C)C)C[C@H]2c2ccc(F)cc2F)CC1)C(C)(C)C)C(C)C` (single isomer, unassigned; diastereomer 2) [listing 2 of 2 here], the EC50 turned out to be 0.18 µM.

On to `CC(C)N(CC(C1CCCCC1)N1CCN(C(=O)[C@@H]2CN(C(C)(C)C)C[C@H]2c2ccc(F)cc2F)CC1)S(C)(=O)=O` (single isomer, unassigned; diastereomer 1) [listing 2 of 2 here], for which the EC50 came out at 0.025 µM.

As to `CC(C)CN(CC(C)C)CC(C1CCCCC1)N1CCN(C(=O)[C@@H]2CN(C(C)(C)C)C[C@H]2c2ccc(F)cc2F)CC1` (some centres not stated), the EC50 was 6.7 µM.

In the case of `CC(=O)N(CC(C1CCCCC1)N1CCN(C(=O)[C@@H]2CN(C(C)(C)C)C[C@H]2c2ccc(F)cc2F)CC1)C(C)C` (single isomer, unassigned; diastereomer 1) [listing 2 of 2 here], the EC50 was found to be 0.05 µM.

Regarding `CC(C)N(CC(C1CCCCC1)N1CCN(C(=O)[C@@H]2CN(C(C)(C)C)C[C@H]2c2ccc(F)cc2F)CC1)C(=O)c1ncccn1` (stereo in doubt; 22B) [listing 2 of 2 here], the EC50 worked out at 0.015 µM.

In the case of `CC(C)NCC(C1CCCCC1)N1CCN(C(=O)[C@@H]2CN(C(C)(C)C)C[C@H]2c2ccc(F)cc2F)CC1` (some centres not stated), the EC50 is 0.24 µM.

For `CCCN(CCC)CC(C1CCCCC1)N1CCN(C(=O)[C@@H]2CN(C(C)(C)C)C[C@H]2c2ccc(F)cc2F)CC1` (some centres not stated), the EC50 was 0.71 µM.

As to `CC(C)N(CC(N1CCN(C(=O)[C@@H]2CN(C(C)(C)C)C[C@H]2c2ccc(F)cc2F)CC1)C(C)(C)C)S(C)(=O)=O` (stereo in doubt; 27B) [listing 2 of 2 here], the EC50 is 0.044 µM.

With `CC(C)N(CC(C1CCCCC1)N1CCN(C(=O)[C@@H]2CN(C(C)(C)C)C[C@H]2c2ccc(F)cc2F)CC1)C(=O)c1cnn(C(C)C)c1` (single isomer, unassigned; diastereomer 2) [listing 2 of 2 here], the EC50 was 0.019 µM.

The experiment is the same for the next values; noted with them: cho.
As for `CC(=O)N(CC(N1CCN(C(=O)[C@@H]2CN(C(C)(C)C)C[C@H]2c2ccc(F)cc2F)CC1)C(C)(C)C)C(C)C` (single isomer, unassigned; diastereomer 1) [listing 2 of 2 here], the EC50 is 0.18 µM.
